# Assay results published in the NIST ThermoML archive (doi:10.1021/acs.jced.7b00008).
# Numbers after ± are expanded uncertainties.
# Settings: Liquid, Ebulliometric method (Recirculating still)
Structure (SMILES),vapor or sublimation pressure (475.01 K) [kPa],vapor or sublimation pressure (488.81 K) [kPa],vapor or sublimation pressure (499.14 K) [kPa],vapor or sublimation pressure (420.11 K) [kPa],vapor or sublimation pressure (432.89 K) [kPa],vapor or sublimation pressure (442.63 K) [kPa]
O=C1CCC(=O)O1 [succinic anhydride],20 ± 0.6,30 ± 0.6,40 ± 0.6,–,–,–
O=C1CCCO1 [γ-butyrolactone],–,–,–,20 ± 0.6,30 ± 0.6,40 ± 0.6
